Laboratory results as given in patent EP0179667B1, “N6-substituted adenosines” (priority 1984, dated 1986).

Key:
adenosine A1 receptor = target: T1, adenosine A1 receptor (Rattus norvegicus, UniProt P25099); assay: Adenosine Receptor Binding - A1 Receptor Affinity (RBA1); details: [3H]-CHA, rat whole brain membranes; read-out: RBA-1
T1 construct: Whole brain minus cerebellum and brainstem from male Long Evans rats (150-200 g) was homogenized; from tissue; host or cells: rat whole brain minus cerebellum and brainstem, membrane homogenate
T1 sequence (P25099 1-326): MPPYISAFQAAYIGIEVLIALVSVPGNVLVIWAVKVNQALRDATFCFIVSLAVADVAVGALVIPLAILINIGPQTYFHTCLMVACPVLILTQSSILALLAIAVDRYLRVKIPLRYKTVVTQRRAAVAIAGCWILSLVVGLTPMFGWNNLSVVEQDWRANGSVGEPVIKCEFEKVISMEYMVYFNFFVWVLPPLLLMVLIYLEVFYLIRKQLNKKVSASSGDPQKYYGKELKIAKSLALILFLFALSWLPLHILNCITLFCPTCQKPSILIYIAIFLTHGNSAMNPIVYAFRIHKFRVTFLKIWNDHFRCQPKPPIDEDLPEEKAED
Description: Adenosine Receptor Binding - A1 Receptor Affinity (RBA1)
Whole brain minus cerebellum and brainstem from male Long Evans rats (150-200 g) was homogenized in 30 volumes of ice-cold 0.05 M Tris-HCI buffer pH 7.7 using a Brinkman Polytron PT-10 (setting number 6 for 20 seconds) and centrifuged for ten minutes at 20,000 x g (Sorvall RC-2), 4°C. The supernatant was discarded, and the pellet was resuspended and centrifuged as before. The pellet was resuspended in 20 ml Tris-HCI buffer containing two International Units/ml of adenosine deaminase (Sigma type III from calf intestinal mucosa), incubated at 37°C for 30 minutes, then subsequently at 0°C for ten minutes. The homogenate was again centrifuged, and the final pellet was resuspended in ice-cold 0.05 M Tris-HCI buffer pH 7.7 to a concentration of 20 mg/ml original wet tissue weight and used immediately.
Tissue homogenate (10 mg/ml) was incubated in 0.05 M Tris-HCI buffer pH 7.7 containing 1.0 nM [^3H]-N^6-cyclohexyladenosine (^3H]-CHA) with or without test agents in triplicate for one hour at 25°C. Incubation volume was 2 ml. Unbound [^3H]-CHA was separated by rapid filtration under reduced pressure through Whatman glass fiber (GF/B) filters. The filters were rinsed three times with 5 ml of ice cold 0.05 M Tris-HCI buffer pH 7.7. The radio-labeled ligand retained on the filter was measured by liquid scintillation spectrophotometry after shaking the filters for one hour or longer on a mechanical shaker in 10 ml of Beckman Ready Solv HP scintillation cocktail.
Nonspecific binding was defined as the binding which occurred in the presence of 1 mM thophylline. […] The Scatchard plot was calculated by linear regression of the line obtained by plotting the amount of radioligand bound (pmoles/gram of tissue) versus [formula] Since the amount of radioligand bound was a small fraction of the total amount added, free radioligand was defined as the concentration (nM) of radioligand added to the incubation mixture. The Hill coefficient was calculated by linear regression of the line obtained by plotting the log of the bound radioligand vs the log of the [formula] The maximal number of binding sites (Bmax) was calculated from the Scatchard plot.

Swiss-Webster male mice [1] = assay: Mouse Activity and Screen Test Procedure (MAST): locomotor activity in actophotometer; assay type: in vivo; details: one hour prior to testing
Description: Nine unfasted Swiss-Webster male mice weighing 20-30 g equally divided into three groups for each drug dose to be tested. That is, data for each dose level was generated by three separated groups of three mice each. A minimum of three dose levels (10, 30, and 100 mg/kg) are tested for each drug. Treatments are administered intraperitoneally one hour prior to testing. All dosages are calculated as parent compound and given in volumes of 10 ml/kg. […] Control animals are injected with Methocel. […] The actophotometer consists of a cylindrical chamber whose center is occupied by another cylinder which contains the illumination for six photocells located on the perimeter of the chamber. Six light-beam interruptions equal one count. […] Data: The data obtained from the screen test are expressed as percent of mice falling off the screen. Data derived from locomotor activity of drug treated mice are compared to the activity of vehicle treated animals and are expressed as percent inhibition of spontaneous locomotion. All percentages reported for inhibition of locomotion (LI) are based upon data accumulated for one hour. […] An overall dose rating is obtained by the following criteria: LAD refers to the lowest dose at which an A rating is achieved. […] The compounds are identified in the Examples.

Swiss-Webster male mice [2] = assay: Mouse Activity and Screen Test Procedure (MAST): screen test (ST); assay type: in vivo; details: one hour postinjection
Text: The compounds of the invention are new chemical substances which are useful as pharmaceutical agents for the treatment of psychoses. The antipsychotic activity of representative compounds of the invention was established by the Mouse Activity and Screen Test Procedrue (MAST) described below.
Nine unfasted Swiss-Webster male mice weighing 20-30 g equally divided into three groups for each drug dose to be tested. That is, data for each dose level was generated by three separated groups of three mice each.
A minimum of three dose levels (10, 30, and 100 mg/kg) are tested for each drug. Treatments are administered intraperitoneally one hour prior to testing. All dosages are calculated as parent compound and given in volumes of 10 ml/kg. Compounds are dissolved or suspended in 0.2% Methocel. Control animals are injected with Methocel.
Testing: A two part testing procedure is started one hour postinjection. First, the screen test (ST) is performed (see Pharmac. Biochem. Behav. 6, 351-353, 1977). Briefly this test consists of placing mice on individual wire screens which are then rotated 180 degrees at the start of a 60 second observation period. The number of mice falling off the inverted screen is recorded.
Data: The data obtained from the screen test are expressed as percent of mice falling off the screen. Data derived from locomotor activity of drug treated mice are compared to the activity of vehicle treated animals and are expressed as percent inhibition of spontaneous locomotion. All percentages reported for inhibition of locomotion (LI) are based upon data accumulated for one hour. Both phases of testing are graded: A=60-100%; G=31-59%; and N=0-30%. An overall dose rating is obtained by the following criteria:
LAD refers to the lowest dose at which an A rating is achieved. […] Utilizing this procedure, an overall dose rating of A was obtained for the noted compound at the indicated dose. The compounds are identified in the Examples.

Row | SMILES | IC50 (adenosine A1 receptor) [nM] | Inhibition of mouse locomotor activity (Swiss-Webster male mice [1]; 1 mg/kg intraperitoneally) [%] | Inhibition of mouse locomotor activity (Swiss-Webster male mice [1]; 3 mg/kg intraperitoneally) [%] | Inhibition of mouse locomotor activity (Swiss-Webster male mice [1]; 10 mg/kg intraperitoneally) [%] | Inhibition of mouse locomotor activity (Swiss-Webster male mice [1]; 30 mg/kg intraperitoneally) [%] | Screen test failure (Swiss-Webster male mice [2]; 1 mg/kg intraperitoneally) [%] | Screen test failure (Swiss-Webster male mice [2]; 3 mg/kg intraperitoneally) [%] | Screen test failure (Swiss-Webster male mice [2]; 10 mg/kg intraperitoneally) [%] | Screen test failure (Swiss-Webster male mice [2]; 30 mg/kg intraperitoneally) [%] | Inhibition of mouse locomotor activity (Swiss-Webster male mice [1]; 0.3 mg/kg intraperitoneally) [%] | Screen test failure (Swiss-Webster male mice [2]; 0.3 mg/kg intraperitoneally) [%] | Inhibition of mouse locomotor activity (Swiss-Webster male mice [1]; 0.1 mg/kg intraperitoneally) [%] | Screen test failure (Swiss-Webster male mice [2]; 0.1 mg/kg intraperitoneally) [%]
1 | CC(=O)Oc1ccccc1C(=O)OC[C@H]1O[C@@H](n2cnc3c(NC4CCCc5ccccc54)ncnc32)[C@H](O)[C@@H]1O (stereo partly drawn) [Example 14, N^6-(1-tetralinyl)-5'-O-(O-acetylsalicoyl)adenosine] | 8220 | 54 | 69 | 94 | 94 | 0 | 0 | 0 | 22 |  |  |  | 
2 | CC(=O)OC[C@H]1O[C@@H](n2cnc3c(NC4CCCc5ccccc54)ncnc32)[C@H](O)[C@@H]1O (stereo partly drawn) [Example 15, N^6-(1-tetralinyl)-5'-acetyl-adenosine] | 500 | 87 | 96 | 98 | 99 | 22 | 22 | 55 | 55 | 46 | 11 |  | 
3 | OC[C@H]1O[C@@H](n2cnc3c(NC4CCCc5c(O)cccc54)ncnc32)[C@H](O)[C@@H]1O (stereo partly drawn) [Example 16, N^6-[1-(5-hydroxy)-tetralinyl]-adenosine] | 36 |  | −13 | 23 | 89 |  | 0 | 0 | 0 |  |  |  | 
4 | OC[C@H]1O[C@@H](n2cnc3c(NC4CCCc5ccc(O)cc54)ncnc32)[C@H](O)[C@@H]1O (stereo partly drawn) [Example 17] | 71 |  | 44 | 88 | 91 |  | 0 | 0 | 22 |  |  |  | 
5 | Cc1cc(C)c2c(c1)C(Nc1ncnc3c1ncn3[C@@H]1O[C@H](CO)[C@@H](O)[C@H]1O)CCC2 (stereo partly drawn) [Example 18, N^6-[1-(5,7-dimethyl)-tetralinya]-adenosine] | 20 | 44 | 73 | 91 | 96 | 11 | 11 | 0 | 0 |  |  |  | 
6 | OC[C@H]1O[C@@H](n2cnc3c(NCC4CCc5ccccc54)ncnc32)[C@H](O)[C@@H]1O (stereo partly drawn) [Example 21, N^6-[2,3-dihydro-1H-inden-1-yl]methyladenosine] | 9 | 23 | 61 | 82 | 99 | 0 | 0 | 22 | 55 | −19 | 0 |  | 
7 | OC[C@H]1O[C@@H](n2cnc3c(NCC4=CCc5ccccc54)ncnc32)[C@H](O)[C@@H]1O [Example 22, N^6-[1H-inden-3-yl]methyladenosine] | 57 | 76 | 76 | 96 | 97 | 0 | 22 | 11 | 55 | 38 | 11 | 30 | 0
8 | OC[C@H]1O[C@@H](n2cnc3c(NCC4(O)CCCc5ccccc54)ncnc32)[C@H](O)[C@@H]1O (stereo partly drawn) [Example 23, N^6-[1-hydroxy-1-tetralinyl]methyl adenosine] | 108 |  | 19 | 16 | 77 |  | 0 | 0 | 22 |  |  |  | 
9 | OC[C@H]1O[C@@H](n2cnc3c(NCC4=CCCc5ccccc54)ncnc32)[C@H](O)[C@@H]1O [Example 24, N^6-[3,4-dihydro-1-naphthalenyl]methyladenosine] | 159 | 34 | 67 | 94 | 95 | 0 | 22 | 22 | 11 | 9 | 0 |  | 
10 | OC[C@H]1O[C@@H](n2cnc3c(NCC4(O)CCc5ccccc54)ncnc32)[C@H](O)[C@@H]1O (stereo partly drawn) [Example 25, N^6-[2,3-dihydro-1-hydroxy-1H-inden-1-yl]methyladenosine] | 120 |  | −14 | 89 | 88 |  | 11 | 22 | 66 |  |  |  | 
11 | OC[C@H]1O[C@@H](n2cnc3c(NCC4=CCCCc5ccccc54)ncnc32)[C@H](O)[C@@H]1O [Example 26, N^6-(1-benzocycloheptenyl)methyladenosine] | 713 |  | 50 | 31 | 64 |  | 0 | 22 | 22 |  |  |  | 
